pKd: −log10 of the molar value. Values joined by “and” are separate entries in the source; they are usually repeats but may differ in a detail not shown here. Equal values may be shown once. Read-outs that look alike come from different tables or passages of the source. One block for each compound: values may come before it. Ends that are not written are not given here. Peptide text beside a SMILES is read from it. * marks the point of attachment. Biotin = O=C1N[C@H]2[C@H](CS[C@H]2CCCCC(=O)*)N1
Experiments:
Assay in all cases: SPR binding of MBP-PDZ analyte to immobilised biotinylated peptides
[1] = target: T1, SCRIB-34/4 tandem PDZ construct (Homo sapiens, UniProt Q14160); conditions: SPR Biacore 2000, 25 C, steady state, 1:1 binding isotherm, MBP-PDZ 0-30 µM, to be considered with caution
T1 construct: residues 997–1093, 1097–1193 and 997–1193 of human SCRIB (Uniprot acc.: Q14160-1); made in house; host or cells: E. coli BL21 DE3
T1 sequence (Q14160 997-1193 isoform Q14160-1): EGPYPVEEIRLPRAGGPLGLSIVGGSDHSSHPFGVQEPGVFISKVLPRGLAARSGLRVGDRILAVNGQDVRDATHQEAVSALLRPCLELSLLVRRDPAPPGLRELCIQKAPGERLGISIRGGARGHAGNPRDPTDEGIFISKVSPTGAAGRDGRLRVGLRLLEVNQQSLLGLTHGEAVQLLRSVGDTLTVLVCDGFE
Experimental: (§1) We opted for the surface plasmon resonance (SPR) method to measure these 190 (19 proteins×2 peptide versions×5 PDZ constructs) interactions. In SPR various concentrations of “analytes” (here, PDZ domains fused to the Maltose Binding Protein (MBP)) flow over surfaces presenting attached “ligands” (here, biotinylated peptides). The amount of analyte interacting with the ligand is measured and quantified in response units (RU). The intensity of this signal is proportional to the binding strength of the assayed interaction (Figure 5A). K [drawing 13] were obtained using a 1∶1 interaction model. However, these calculated K [drawing 14] were rather inaccurate especially for weak interactions. Therefore, we preferred to rank the binding strengths of the 190 interactions using normalised RU signals at equilibrium ( [drawing 15] ) rather than K [drawing 16] (see Methods for details). These normalised [drawing 17] values were plotted in form of a heat map (Figure 5B).
(§2) The cDNA encoding residues 448–572 and 613–752 of mouse MAGI-1 (UniProt acc.: Q6RHR9-1) encoding for MAGI1-2/6 (100% identical to human MAGI1-2/6) and MAGI1-3/6 (99% identical to human MAGI1-3/6) PDZ domains, respectively, were inserted into the NcoI/KpnI sites of the pETM-41 expression vector (EMBL) containing a 6×His-MBP tag followed by a TEV protease cleavage site. A similar cloning strategy was adopted for cDNA bearing residues 997–1093, 1097–1193 and 997–1193 of human SCRIB (Uniprot acc.: Q14160-1) encoding for SCRIB-3/4, SCRIB-4/4 PDZ domains and SCRIB-34/4 tandem PDZ construct, respectively.
(§3) Data were collected on a Biacore 2000 instrument (Biacore AB/GE Healthcare Bio-Sciences Corp., Piscataway, NJ, USA) at 25 [drawing 74] C. SPR experiments (ligand immobilisation and binding measurements) have been performed as described in Fournane et al.. Briefly, biotinylated peptides (instead of GST-fused recombinant peptides) were immobilised on CM5 sensorchips on which Neutravidin was previously attached. The MBP-PDZ domain analyte was injected at 8 to 10 different concentrations ranging from 0 up to 30 [drawing 75] M. Data were processed using the BiaEvaluation 3.2 software (Biacore AB/GE Healthcare Bio-Sciences Corp.) using “double referencing” [78] in which sensorgrams were corrected for buffer effects and bulk refractive index changes.
(§4) The steady-state binding signal ( [drawing 76] ) was derived by averaging the signals in a five second window at equilibrium. Steady-state analysis was performed by fitting the average signal [drawing 77] as a function of total MBP-PDZ concentrations, assuming a simple 1∶1 interaction binding isotherm model. […] Reasons for this inaccuracy are likely to be the following: 1. As previously described, several repetitions of all the measurements are required to determine accurate K [drawing 81] . In our case, such repetitions were not achievable in reasonable time due to the large amount of interactions measured in this study. 2. The highest injected analyte concentration restricts the maximal K [drawing 82] (weakest interaction) that can be accurately obtained. 3. A K [drawing 83] is estimated based on a mathematical extrapolation of observed [drawing 84] signals leading to additional uncertainty. Based on these reasons, we considered the calculated K [drawing 85] not as accurate enough to be used for absolute binding strength comparison in this study. We rather performed a relative analysis of binding strengths using directly [drawing 86] signals which are not biased by any mathematical assumption. We focussed on [drawing 87] signals obtained at 10 [drawing 88] M MBP-PDZ concentration, which have been systematically measured in duplicate. The [drawing 89] signal is directly proportional to the molecular weight of the analyte and the amount of immobilised ligand. Therefore, the [drawing 90] signals were normalised taking those into account before being used for binding strength comparison. […]

[2] = target: T2, SCRIB-3/4 PDZ domain (Homo sapiens, UniProt Q14160); conditions: SPR Biacore 2000, 25 C, steady state, 1:1 binding isotherm, MBP-PDZ 0-30 µM, to be considered with caution
T2 construct: cDNA bearing residues 997–1093, 1097–1193 and 997–1193 of human SCRIB (Uniprot acc.: Q14160-1); made in house; host or cells: E. coli BL21 DE3
T2 sequence (Q14160 997-1093 isoform Q14160-1): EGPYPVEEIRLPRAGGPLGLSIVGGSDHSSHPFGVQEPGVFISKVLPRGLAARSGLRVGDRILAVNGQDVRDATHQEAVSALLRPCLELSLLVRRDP
Experimental: as §1, §2, §3, §4

[3] = target: T3, MAGI1-2/6 PDZ domain (Mus musculus, UniProt Q6RHR9)
T3 construct: The cDNA encoding residues 448–572 and 613–752 of mouse MAGI-1 (UniProt acc.: Q6RHR9-1) encoding for MAGI1-2/6; made in house; host or cells: E. coli BL21 DE3
T3 sequence (Q6RHR9 448-572): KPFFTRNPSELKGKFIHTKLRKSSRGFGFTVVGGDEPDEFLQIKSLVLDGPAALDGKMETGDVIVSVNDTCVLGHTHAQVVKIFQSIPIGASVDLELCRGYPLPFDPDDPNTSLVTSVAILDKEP
Experimental: as §1, §2, §3, §4

[4] = target: T4, MAGI1-3/6 PDZ domain (Mus musculus, UniProt Q6RHR9); conditions: SPR Biacore 2000, 25 C, steady state, 1:1 binding isotherm, MBP-PDZ 0-30 µM, to be considered with caution
T4 construct: The cDNA encoding residues 448–572 and 613–752 of mouse MAGI-1 (UniProt acc.: Q6RHR9-1); made in house; host or cells: E. coli BL21 DE3
T4 sequence (Q6RHR9 613-752): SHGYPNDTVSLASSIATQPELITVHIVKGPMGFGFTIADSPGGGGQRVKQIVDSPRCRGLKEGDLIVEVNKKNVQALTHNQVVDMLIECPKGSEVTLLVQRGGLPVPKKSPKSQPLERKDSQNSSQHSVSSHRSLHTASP
Experimental: as §1, §2, §3, §4

[5] = target: T5, SCRIB-4/4 PDZ domain (Homo sapiens, UniProt Q14160); conditions: SPR Biacore 2000, 25 C, steady state, 1:1 binding isotherm, MBP-PDZ 0-30 µM, to be considered with caution
T5 construct: residues 997–1093, 1097–1193 and 997–1193 of human SCRIB (Uniprot acc.: Q14160-1); made in house; host or cells: E. coli BL21 DE3
T5 sequence (Q14160 1097-1193 isoform Q14160-1): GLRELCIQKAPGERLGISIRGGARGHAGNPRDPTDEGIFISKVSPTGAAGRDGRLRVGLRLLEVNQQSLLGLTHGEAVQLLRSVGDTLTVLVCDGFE
Experimental: as §1, §2, §3, §4

pKd ([1]; read-out: tentative KD): 5.52
Compound: CNTVTVETVV [MAS_10]

pKd ([1]; read-out: tentative KD): 5.05
Compound: CC[C@H](C)[C@H](NC(=O)CNC(=O)[C@H](C)NC(=O)CNC(=O)[C@H](CO)NC(=O)CNC(=O)CCCC[C@@H]1SC[C@@H]2NC(=O)N[C@@H]21)C(=O)N[C@@H](CCC(=O)O)C(=O)N[C@@H](CO)C(=O)N[C@@H](CC(N)=O)C(=O)N[C@H](C(=O)O)C(C)C [TANC1_05] (Biotin-GSGAGIESNV-OH)

pKd ([1]; read-out: tentative KD): 4.80
pKd ([5]; read-out: tentative KD): 3.36
Compound: CC(C)[C@H](NC(=O)[C@@H](NC(=O)[C@@H](NC(=O)[C@H](CCC(=O)O)NC(=O)[C@@H](NC(=O)CNC(=O)[C@H](C)NC(=O)CNC(=O)[C@H](CO)NC(=O)CNC(=O)CCCC[C@@H]1SC[C@@H]2NC(=O)N[C@@H]21)C(C)C)[C@@H](C)O)C(C)C)C(=O)O [MAS_05] (Biotin-GSGAGVETVV-OH)

pKd ([1]; read-out: tentative KD): 5.30
pKd ([2]; read-out: tentative KD): 4.92
Compound: VMRLQSETSV [VANG2_10]

pKd ([1]; read-out: tentative KD): 4.82
Compound: CC[C@H](C)[C@H](NC(=O)[C@@H](NC(=O)[C@H](CCC(=O)O)NC(=O)[C@H](Cc1c[nH]cn1)NC(=O)CNC(=O)[C@H](C)NC(=O)CNC(=O)[C@H](CO)NC(=O)CNC(=O)CCCC[C@@H]1SC[C@@H]2NC(=O)N[C@@H]21)[C@@H](C)O)C(=O)N[C@H](C(=O)O)C(C)C [TMEM215_05] (Biotin-GSGAGHETIV-OH)

pKd ([1]; read-out: tentative KD): 5.05
Compound: QGRWDHETIV [TMEM215_10]

pKd ([4]; read-out: tentative KD): 4.43
Compound: PMESGICTIV [TTC24_10]

Further lines, the compound ahead of its results:

Compound: CC(C)C[C@H](NC(=O)[C@H](CCC(N)=O)NC(=O)[C@@H](NC(=O)[C@H](CCC(=O)O)NC(=O)[C@H](CCCNC(=N)N)NC(=O)[C@H](CCCNC(=N)N)NC(=O)[C@@H](NC(=O)[C@H](CCCNC(=N)N)NC(=O)[C@H](CO)NC(=O)[C@@H](N)CO)[C@@H](C)O)[C@@H](C)O)C(=O)O [16E6]
pKd ([1]; tentative KD): 5.52
pKd ([2]; tentative KD): 4.74 and 4.82
pKd ([3]; this study (Kd), Table S3, column this study, SPR): 5.52

Compound: RSSRTRRETQV [16E6L/V, reference compound]
pKd ([4]; tentative KD): 4.16 and 4.12 and 3.69
pKd ([1]; tentative KD): 5.52 and 5.40
pKd ([2]; tentative KD): 4.74 and 4.39 and 4.49
pKd ([5]; tentative KD): 4.33 and 4.26

Compound: NRVDSKETEC [ADAM17_10]
pKd ([1]; read-out: tentative KD): 5.10

Compound: NPDALPETLV [ARHGAP6_10]
pKd ([3]; SPR Biacore 2000, 25 C, steady state, 1:1 binding isotherm, MBP-PDZ 0-30 µM, to be considered with caution, read-out: tentative KD): 4.74

Compound: C[C@H](NC(=O)CNC(=O)[C@H](CO)NC(=O)CNC(=O)CCCC[C@@H]1SC[C@@H]2NC(=O)N[C@@H]21)C(=O)NCC(=O)N[C@@H](CCCCN)C(=O)N[C@@H](CCC(=O)O)C(=O)N[C@H](C(=O)N[C@@H](CO)C(=O)N[C@@H](Cc1ccccc1)C(=O)O)[C@@H](C)O [GLUT7_05] (Biotin-GSGAGKETSF-OH)
pKd ([1]; read-out: tentative KD): 5.30

Compound: CC(C)[C@H](NC(=O)[C@H](Cc1ccc(O)cc1)NC(=O)[C@H](CO)NC(=O)[C@H](CCC(=O)O)NC(=O)[C@H](CCCCN)NC(=O)CNC(=O)[C@H](C)NC(=O)CNC(=O)[C@H](CO)NC(=O)CNC(=O)CCCC[C@@H]1SC[C@@H]2NC(=O)N[C@@H]21)C(=O)O [ABC1_05] (Biotin-GSGAGKESYV-OH)
pKd ([1]; read-out: tentative KD): 5.00
